Common to all, as to type: biochemical
The target in assay [1] is T1, Thrombin (Homo sapiens, UniProt P00734).
T1 construct: Thrombin reaction rates were determined with the water soluble substrate
Nature of the assay: Thrombin reaction rates, spectrophotometric, change in absorbance at 496 nm. The note with it: 37° C., 0.10M ACES pH 7.0, 0.05M KCl.
Method: Identical test conditions were used including temperature 37° C., volume 1.0 ml., and buffer 0.10M ACES pH 7.0, with 0.05M KCl. Since sarcosyl (Sar) and carbobenzyloxy (Cbz) have similar molecular weights, both were tested at 100 ug/ml.

Assay [2] relates to coagulation factor VIII. The assay can be described thus: Fluorescent coagulation factor VIII assay based on APTT, substrate detects thrombin generation. How it is done:
(§1) Fluorescent assays for coagulation factors VIII and IX, based on the activated partial thromboplastin time (APTT) assay, were performed with the substrate (Sar-Pro-Arg)2 -Rhodamine 110. The synthetic substrate was used to detect thrombin generation, substituting for the natural substrate fibrinogen present in both human and animal plasmas. Standard calibration curves were constructed with normal plasma, Thromboscreen™ from Curtin Matheson Scientific, which was used to correct factor VIII and IX deficient plasmas, George King Biomedical. The APTT reagent contained purified soybean phospholipids and ellagic acid activator, Dade Diagnostics. […] A Turner model 430 spectrofluorometer with a temperature controlled sample cell holder (37° C.) was used to make the kinetic fluorescent measurements. Excitation and emission wavelengths were set at 468 nm and 525 nm, respectively. Glass test tubes were used to perform the plasma activations and disposable acrylic cuvettes, Centaur Sciences, Inc., were used for the fluorescent measurements.
(§2) A 100 uL aliquot of 0.85% saline or normal plasma diluted in saline was added to a test tube followed by the sequential addition of 100 uL of factor deficient plasma and 100 uL of the APTT reagent. The test tube was incubated in a heating block at 37° C. for 2 minutes, at which time 100 uL of 25 mM CaCl2 was added and the incubation was continued for an additional 30 seconds. The incubation mixture was transferred to a cuvette containing 2.0 mL of the substrate solution prewarmed to 37° C. and the fluorescent rate measured. Linear dose response curves were obtained for factors VIII and IX between 1% and 100% of normal: […]

Assay [3] has as its system coagulation factor IX. The assay can be described thus: Fluorescent coagulation factor IX assay based on APTT, substrate detects thrombin generation. As for the experimental part: as §1, §2
Assay [4] concerns the target T2, Purified human alpha-thrombin (Homo sapiens, UniProt P00734).
T2 construct: Purified human alpha-thrombin; purchased Dr. John Fenton, N.Y. State Dept. of Health
The assay can be described thus: Spectrophotometric assay of thrombin with (Pyro-Pro-Arg)2-Rhodamine 110. The note with it: substrate 78 ug/mL, 37° C., pH 8.0. As for the experimental part:
Dose response curves were determined for three different concentrations of thrombin by measuring absorbance increases at 468 nm and 496 nm. Working thrombin dilutions were prepared as follows: Purified human alpha-thrombin, Dr. John Fenton, N.Y. State Dept. of Health, was diluted to 1.04 U/mL, 0.52 U/mL and 0.25 U/mL in 0.05M HEPES, pH 8.0, with 0.25M NaCl and maintained at 4° C. The substrate, (Pyro-Pro-Arg)2 -Rhodamine 110, was dissolved to 78 ug/mL in 0.20M HEPES, pH 8.0, with 0.3M KCl. Disposable acrylic cuvettes with 1 cm light path, Centaur Sciences, Inc. were used. A one mL aliquot of substrate was pipetted into a cuvette and warmed to 37° C. in a heating block. A one mL sample of a working thrombin dilution was added to the cuvette. After mixing the thrombin and substrate, absorbances at 468 nm and 496 nm were determined for 30 seconds with a Hewlett-Packard Model 8450A spectrophotometer. The increased absorbances over the timed intervals were: […]

Where [5] appears, read: substrate 80 micromolar, 15% ethanol for the Cbz substrate.
Where [6] appears, read: Factor level 1 % normal, plasma dilution 1:250.
[7] abbreviates: Factor level 10 % normal, plasma dilution 1:25.
The mark [8] stands for this setting: Factor level 100 % normal, plasma dilution 1:2.5.
The mark [9] stands for this setting: Factor level <1 % normal (no plasma dilution), ex 468 nm, em 525 nm, quinine sulfate = 1.0.

Consider “(H-Sar-Pro-Arg)2 -Rhodamine 110 [(Sar-Pro-Arg)2 -Rhodamine 110]”, for which the results for the “Change In Absorbance, 496 nm/Unit Thrombin/mL” value in assay [1] (setting [5]) and in assay [1] (substrate 800 micromolar) were 1.700 and 2.872, respectively. In addition, the “Relative Fluorescence, Factor VIII” value worked out at 0.121 in assay [2] (setting [6]), 0.148 in assay [2] (setting [7]), 0.333 in assay [2] (setting [8]) and 0.119 in assay [2] (setting [9]). Further, the “Relative Fluorescence, Factor IX” value in assay [3] (setting [6]) is 0.127; in assay [3] (setting [7]), 0.154; in assay [3] (setting [8]), 0.333; in assay [3] (setting [9]), 0.121.
Regarding “(H-L-Pyro-Pro-Arg)2 -Rhodamine 110 [(Pyro-Pro-Arg)2 -Rhodamine 110]”, the “Absorbance, 0-30 seconds, 468 nm” value is 0.0461 in assay [4] (Thrombin 0.26 U/mL), 0.0912 in assay [4] (Thrombin 0.52 U/mL) and 0.1766 in assay [4] (Thrombin 1.04 U/mL). Besides, the figures for the “Absorbance, 0-30 seconds, 496 nm” value in assay [4] (Thrombin 0.26 U/mL), in assay [4] (Thrombin 0.52 U/mL) and in assay [4] (Thrombin 1.04 U/mL) were 0.0462, 0.0860 and 0.1671, respectively.
Consider “(Cbz-L-Pro-Arg)2 -Rhodamine 110 [(Cbz-Pro-Arg)2 -Rhodamine 110, reference compound]”, for which, in assay [1] (setting [5]), the “Change In Absorbance, 496 nm/Unit Thrombin/mL” value amounted to 0.122.

(Values after US4801534A, “Water soluble zanthylium derivative substrates” (Coulter Electronics, Inc., priority 1987, dated 1989).)
